Article PMC2409929 (British Journal of Cancer, 2004)
Read-outs that look alike come from different tables or passages of the source. Marks after values point to notes of the source that are not given here.

Key:
[1] = test system: patients with colorectal cancer; settings: same schedule as arm A (350 mg m^−2 q3 weeks), cited from earlier work
[2] = test system: patients with metastatic colorectal cancer; experiment: Toxicity graded by NCI-CTC in the phase II trial; format: in vivo, human; settings: for Anaemia, Grade 3–4, %Patients / Anaemia, all grades, %Patients / Leukocytopenia, Grade 3–4, %Patients / Leukocytopenia, all grades, %Patients / Neutropenia, Grade 3–4, %Patients / Neutropenia, all grades, %Patients / Thrombocytopenia, Grade 3–4, %Patients / Thrombocytopenia, all grades, %Patients: worst grade during study
Procedure: Haematology was checked weekly.
Otherwise, they were analysed by nonparametric methods. […] All tests for significance were two-tailed.

[3] = arm A (350 mg m^−2 90-min i.v. q3 weeks)
[4] = arm A (350 mg m^−2 90-min i.v. q3 weeks), possibly or probably related
[5] = arm B (125 mg m^−2 90-min i.v. weekly × 4 q6 weeks)
[6] = arm B (125 mg m^−2 90-min i.v. weekly × 4 q6 weeks), possibly or probably related
[7] = arm C (250 mg m^−2 90-min i.v. q2 weeks)

For `CCc1c2c(nc3ccc(OC(=O)N4CCC(N5CCCCC5)CC4)cc13)-c1cc3c(c(=O)n1C2)COC(=O)[C@]3(O)CC` [irinotecan], the Median survival ([1]; ref Cunningham et al (1998)) is listed as 9.2 months, the Median survival ([1]; ref Rougier et al (1997)) is listed as 10.8 months and the “Anaemia, Grade 3–4, %Cycles” value [2, 3] is listed as 1%. The “Anaemia, all grades, %Cycles” value [2, 3] was 92%, the “Episodes of grade 3–4 neutropenia with duration <8 days” value [2, 3] was 53% and the “Febrile neutropenia, %Patients” value [2, 3] was 75%. The “Leukocytopenia, Grade 3–4, %Cycles” value [2, 3] was 15%, the “Leukocytopenia, all grades, %Cycles” value [2, 3] was 70% and the “Neutropenia, Grade 3–4, %Cycles” value [2, 3] was 21%. The “Neutropenia, all grades, %Cycles” value [2, 3] was 65%, the “Neutropenic infection, %Cycles” value [2, 3] was 1% and the “Neutropenic infection, %Patients” value [2, 3] was 2%. For the same compound, the “Number of patients with at least one grade 3–4 adverse event possibly or probably related to irinotecan” value [2, 3] was 12, the “Patients with at least one grade 3–4 adverse event possibly or probably related to irinotecan, %” value [2, 3] was 29% and the “Thrombocytopenia, Grade 3–4, %Cycles” value [2, 3] was 0/0%. The “Thrombocytopenia, all grades, %Cycles” value [2, 3] was 14%, the “Alopecia, all grades, % of patients” value [2, 4] was 71 ^b % and the “Anorexia, all grades, % of patients” value [2, 4] was 12%. The “Cholinergic syndrome, all grades, % of patients” value [2, 4] was 68 ^a %, the “Diarrhoea, Grade 3–4, % of patients” value [2, 4] was 10% and the “Diarrhoea, all grades, % of patients” value [2, 4] was 88%. For the same compound, the “Fatigue, Grade 3–4, % of patients” value [2, 4] was 7%, the “Fatigue, all grades, % of patients” value [2, 4] was 51% and the “Fever in absence of infection, Grade 3–4, % of patients” value [2, 4] was 2%. The “Fever in absence of infection, all grades, % of patients” value [2, 4] was 12%, the “Gastrointestinal pain, Grade 3–4, % of patients” value [2, 4] was 2% and the “Gastrointestinal pain, all grades, % of patients” value [2, 4] was 17%. The “Infection, Grade 3–4, % of patients” value [2, 4] was 2%, the “Infection, all grades, % of patients” value [2, 4] was 7% and the “Nausea, Grade 3–4, % of patients” value [2, 4] was 15%. For the same compound, the “Nausea, all grades, % of patients” value [2, 4] was 73%, the “Vomiting, Grade 3–4, % of patients” value [2, 4] was 10% and the “Vomiting, all grades, % of patients” value [2, 4] was 54%. The “Median time to recovery from grade 3–4 neutropenia” value ([2]; arm A (350 mg m^−2 90-min i.v. q3 weeks), range 6–14) was 7 days, the “Median number of days to grade 3–4 nadir (neutropenia)” value ([2]; arm A (350 mg m^−2 90-min i.v. q3 weeks), range 6–17) was 9 days and the “Anaemia, Grade 3–4, %Patients” value [2, 3] was 2%. For the same compound, the “Anaemia, all grades, %Patients” value [2, 3] was 98%, the “Leukocytopenia, Grade 3–4, %Patients” value [2, 3] was 20% and the “Leukocytopenia, all grades, %Patients” value [2, 3] was 73%. For the same compound, the “Neutropenia, Grade 3–4, %Patients” value [2, 3] was 34%, the “Neutropenia, all grades, %Patients” value [2, 3] was 73% and the “Thrombocytopenia, Grade 3–4, %Patients” value [2, 3] was 0/0%. For the same compound, the “Thrombocytopenia, all grades, %Patients” value [2, 3] was 24%, the “Anaemia, Grade 3–4, %Cycles” value [2, 5] was 1% and the “Anaemia, all grades, %Cycles” value [2, 5] was 87%. For the same compound, the “Episodes of grade 3–4 neutropenia with duration <8 days” value [2, 5] was 77%, the “Febrile neutropenia, %Cycles” value [2, 5] was 2% and the “Febrile neutropenia, %Patients” value [2, 5] was 5%. The “Leukocytopenia, Grade 3–4, %Cycles” value [2, 5] was 6%, the “Leukocytopenia, all grades, %Cycles” value [2, 5] was 53% and the “Neutropenia, Grade 3–4, %Cycles” value [2, 5] was 12%. The “Neutropenia, all grades, %Cycles” value [2, 5] was 50%, the “Number of patients with at least one grade 3–4 adverse event possibly or probably related to irinotecan” value [2, 5] was 11 and the “Patients with at least one grade 3–4 adverse event possibly or probably related to irinotecan, %” value [2, 5] was 30%. The “Thrombocytopenia, Grade 3–4, %Cycles” value [2, 5] was 0/0%, the “Thrombocytopenia, all grades, %Cycles” value [2, 5] was 6% and the “Alopecia, all grades, % of patients” value [2, 6] was 43%. For the same compound, the “Anorexia, all grades, % of patients” value [2, 6] was 14%, the “Cholinergic syndrome, all grades, % of patients” value [2, 6] was 41 ^a % and the “Diarrhoea, Grade 3–4, % of patients” value [2, 6] was 24%. The “Diarrhoea, all grades, % of patients” value [2, 6] was 76%, the “Fatigue, Grade 3–4, % of patients” value [2, 6] was 3% and the “Fatigue, all grades, % of patients” value [2, 6] was 38%. For the same compound, the “Fever in absence of infection, all grades, % of patients” value [2, 6] was 19%, the “Gastrointestinal pain, Grade 3–4, % of patients” value [2, 6] was 3% and the “Gastrointestinal pain, all grades, % of patients” value [2, 6] was 16%. The “Infection, Grade 3–4, % of patients” value [2, 6] was 5%, the “Infection, all grades, % of patients” value [2, 6] was 11% and the “Nausea, Grade 3–4, % of patients” value [2, 6] was 5%. For the same compound, the “Nausea, all grades, % of patients” value [2, 6] was 73%, the “Vomiting, Grade 3–4, % of patients” value [2, 6] was 3% and the “Vomiting, all grades, % of patients” value [2, 6] was 57%. For the same compound, the “Median time to recovery from grade 3–4 neutropenia” value ([2]; arm B (125 mg m^−2 90-min i.v. weekly × 4 q6 weeks), range 2–15) was 7 days, the “Median number of days to grade 3–4 nadir (neutropenia)” value ([2]; arm B (125 mg m^−2 90-min i.v. weekly × 4 q6 weeks), range 4–13) was 7 days and the “Anaemia, Grade 3–4, %Patients” value [2, 5] was 3%. The “Anaemia, all grades, %Patients” value [2, 5] was 92%, the “Leukocytopenia, Grade 3–4, %Patients” value [2, 5] was 14% and the “Leukocytopenia, all grades, %Patients” value [2, 5] was 68%. The “Neutropenia, Grade 3–4, %Patients” value [2, 5] was 25%, the “Neutropenia, all grades, %Patients” value [2, 5] was 61% and the “Thrombocytopenia, Grade 3–4, %Patients” value [2, 5] was 0/0%. For the same compound, the “Thrombocytopenia, all grades, %Patients” value [2, 5] was 11%, the “Anaemia, Grade 3–4, %Cycles” value [2, 7] was 4/4% and the “Anaemia, all grades, %Cycles” value [2, 7] was 90%.
